From the supplement of paper PMC10307832

Experiments:
Experiment in all cases: relative viability (nuclei count vs DMSO), 5 days (fraction); higher = more cells survive
[1] = compound: C1=CC=C2C(=C1)N=C(S2)C(C#N)C3=NC(=NC=C3)NCCC4=CN=CC=C4 + CCNC(=O)c1noc(-c2cc(C(C)C)c(O)cc2O)c1-c1ccc(CN2CCOCC2)cc1 [Luminespib] (partner 0.01 µM)
Method in brief: (§1)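 Lung cancer cell lines were pin-tool dosed in 1536-well plates on the day after seeding, with either a lone drug or a fixed anchor-drug dose plus five library-drug doses (not always all listed) in √10 steps. Nuclei were counted on 4× images after 5 days. Relative viability is the ratio of treated-well to vehicle-well nuclei counts, with each value a median of duplicate plates.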

[2] = compound: C1=CC=C2C(=C1)N=C(S2)C(C#N)C3=NC(=NC=C3)NCCC4=CN=CC=C4 + CS(=O)(=O)CCNCc1ccc(-c2ccc3ncnc(Nc4ccc(OCc5cccc(F)c5)c(Cl)c4)c3c2)o1 [Lapatinib] (partner 2 µM)
Method in brief: as §1

NVP-TAE684 + Decitabine = compound: COc1cc(N2CCC(N3CCN(C)CC3)CC2)ccc1Nc1ncc(Cl)c(Nc2ccccc2S(=O)(=O)C(C)C)n1 [NVP-TAE684] + Nc1ncn([C@H]2C[C@H](O)[C@@H](CO)O2)c(=O)n1 [Decitabine] (partner 2 µM)
Method in brief: as §1

Vandetanib + Trametinib = compound: COc1cc2/c(=N/c3ccc(Br)cc3F)nc[nH]c2cc1OCC1CCN(C)CC1 [Vandetanib] + CC(=O)Nc1cccc(-n2c(=O)n(C3CC3)c(=O)c3c(Nc4ccc(I)cc4F)n(C)c(=O)c(C)c32)c1 [Trametinib] (partner 0.02 µM)
Method in brief: as §1

Cell Line	relative viability ([1]; first compound 0.005 µM)	relative viability ([1]; first compound 0.01581 µM)	relative viability ([1]; first compound 0.05 µM)	relative viability ([1]; first compound 0.1581 µM)	relative viability ([1]; first compound 0.5 µM)	relative viability ([2]; first compound 0.005 µM)	relative viability ([2]; first compound 0.01581 µM)	relative viability ([2]; first compound 0.05 µM)	relative viability ([2]; first compound 0.1581 µM)	relative viability ([2]; first compound 0.5 µM)	relative viability (NVP-TAE684 + Decitabine; first compound 0.2 µM)	relative viability (NVP-TAE684 + Decitabine; first compound 0.6325 µM)	relative viability (NVP-TAE684 + Decitabine; first compound 2 µM)	relative viability (Vandetanib + Trametinib; first compound 0.02 µM)	relative viability (Vandetanib + Trametinib; first compound 0.06325 µM)	relative viability (Vandetanib + Trametinib; first compound 0.2 µM)	relative viability (Vandetanib + Trametinib; first compound 0.6325 µM)	relative viability (Vandetanib + Trametinib; first compound 2 µM)
EKVX	0.953	0.837	0.868	0.673	0.842	0.237	0.185	0.201	0.211	0.195	0.317	0.354	0.325	0.37	0.289	0.281	0.294	0.212
EMC-BAC-2	0.766	1.32	1.11	1.28	1.03	0.845	0.855	0.826	1.02	0.879	0.978	0.946	0.708	1.01	0.844	0.872	0.902	0.822
EPLC-272H	0.248	0.229	0.169	0.392	0.302	0.784	0.642	1.02	1.15	0.684	0.326	0.357	0.299	0.303	0.242	0.289	0.293	0.255
H3255	0.779	0.884	0.916	1.11	0.944	0.225	0.227	0.234	0.261	0.251	0.582	0.547	0.506	0.614	0.577	0.604	0.463	0.245
HARA	0.527	0.802	0.452	0.666	0.675	0.692	0.862	0.643	1.01	0.676	0.664	0.55	0.234	0.515	0.522	0.574	0.857	0.523
HCC-15	0.478	0.255	0.237	0.354	0.27	0.798	0.84	0.817	0.947	0.805	0.582	0.524	0.484	0.386	0.362	0.37	0.395	0.369
HCC-44	0.988		1.03	1.05	0.951	0.848	1.02	1.01	1.16	0.823	0.946	0.955	0.876	1.1	1.04	1.06	1.15	1.06
HCC-827	0.464	0.833	0.579	1.13	0.785	0.242	0.183	0.259	0.188	0.208	0.301	0.279	0.311	0.568	0.457	0.501	0.266	0.16
HOP-62	0.749	0.948	0.861	0.973	0.898	0.874	1	0.893	1.12	0.903	0.242	0.236	0.266	0.354	0.368	0.36	0.4	0.363
LC-2-ad	0.807	1.06	0.965	1.17	0.91	0.648	0.976	0.946	1	0.634	0.754	0.78	0.606	0.899	0.858	0.939	0.861	0.662
LCLC-97TM1	0.748	0.896	0.795	0.947	0.685	0.971	0.803	0.897	0.954	0.674	0.208	0.184	0.153	0.201	0.217	0.202	0.192	0.165
LK-2	0.206	0.181	0.209	0.176	0.194		0.931	0.917	1.15	0.819	0.24	0.205	0.146	0.753	0.829	0.82	0.62	0.724
LOU-NH91	0.274	0.34	0.336	0.333	0.43	0.799	0.758	0.688	0.739	0.724	0.801	0.782	0.645	0.775	0.731	0.725	0.716	0.673
LU99A	0.188	0.254	0.262	0.268	0.274	0.704	1.02	0.886	1.17	0.976	0.97		0.496	0.486	0.518	0.396	0.512	0.539
LXF-289	0.544	0.74	0.661	0.875	0.677	0.803	0.914	0.915	1	0.864	0.433	0.384	0.267	0.681	0.663	0.606	0.69	0.677
NCI-H23	0.211		0.204	0.225	0.215		1.16	1.12	1.22	1.14	0.31	0.322	0.241	0.382	0.342	0.335	0.455	0.293
NCI-H322M	0.646	0.829	0.88	0.933	0.932	0.545	0.487	0.592	0.687	0.504	0.658	0.619	0.526	0.513	0.476	0.516	0.55	0.486
NCI-H358	0.248	0.465	0.296	0.475	0.185	0.436	0.413	0.463	0.518	0.481	0.198	0.197	0.0907	0.153	0.129	0.123	0.128	0.123
